Changes are numbered by the printed parent chain.
Key:
FLT3-ITD = target: T1, FLT3-ITD (Homo sapiens, UniProt P36888); experiment: FLT3-ITD biochemical kinase assay (AlphaScreen)
T1 construct: FLT3-ITD; Invitrogen #PV6190
T1 sequence (P36888 1-993): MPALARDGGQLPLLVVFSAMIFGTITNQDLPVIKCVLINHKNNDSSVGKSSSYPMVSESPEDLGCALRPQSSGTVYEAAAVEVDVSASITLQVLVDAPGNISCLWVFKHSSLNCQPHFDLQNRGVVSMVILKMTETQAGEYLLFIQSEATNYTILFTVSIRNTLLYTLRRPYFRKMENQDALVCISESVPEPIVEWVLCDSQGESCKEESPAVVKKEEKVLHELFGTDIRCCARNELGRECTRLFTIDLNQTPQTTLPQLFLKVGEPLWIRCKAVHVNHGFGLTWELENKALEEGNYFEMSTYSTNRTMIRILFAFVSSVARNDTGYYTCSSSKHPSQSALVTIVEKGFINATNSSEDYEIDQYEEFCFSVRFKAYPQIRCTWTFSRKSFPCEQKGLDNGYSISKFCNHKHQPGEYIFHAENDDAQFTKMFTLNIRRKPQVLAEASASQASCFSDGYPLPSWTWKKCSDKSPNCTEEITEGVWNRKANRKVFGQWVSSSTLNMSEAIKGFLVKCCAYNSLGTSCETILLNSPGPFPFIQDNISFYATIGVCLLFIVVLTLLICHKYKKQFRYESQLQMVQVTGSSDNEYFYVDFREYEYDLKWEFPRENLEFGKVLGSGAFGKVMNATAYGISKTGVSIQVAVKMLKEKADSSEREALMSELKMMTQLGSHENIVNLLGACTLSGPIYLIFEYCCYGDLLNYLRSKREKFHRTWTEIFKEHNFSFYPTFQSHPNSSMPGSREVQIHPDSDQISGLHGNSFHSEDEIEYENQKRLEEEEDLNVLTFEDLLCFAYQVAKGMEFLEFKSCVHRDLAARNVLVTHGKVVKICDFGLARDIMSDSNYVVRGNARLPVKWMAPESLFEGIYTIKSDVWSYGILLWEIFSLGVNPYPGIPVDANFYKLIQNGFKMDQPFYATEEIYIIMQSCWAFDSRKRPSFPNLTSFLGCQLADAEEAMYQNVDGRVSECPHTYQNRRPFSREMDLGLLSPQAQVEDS
Procedure, shortened: (§1)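 Recombinant enzyme phosphorylated biotin-poly(Glu4-Tyr) peptide (30 nM final); ATP final 10 μM for FLT3-D835Y, 100 μM for FLT3-ITD. AlphaScreen read-out: streptavidin donor and anti-phosphotyrosine (PY20) acceptor beads, 20 and 60 min at room temperature; inhibition seen as drop in 580 nm proximity signal; IC50 determined.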

[1] = target: T2, BA/F3-FLT3-ITD + F691L cells (Homo sapiens, UniProt P36888, F691L, cells depend on it, form not given); experiment: BA/F3-FLT3-ITD + F691L cell proliferation assay (CellTiter-Glo); type: cell-based, murine; settings: BaF3 FLT3 ITD/F691L cells; read-out: Cell Activity (IC50 μM) BaF3_FLT3_ITD/F691L
T2 sequence (P36888 1-993 F691L): T1 sequence (P36888 1-993) with F691L
Source text: The FLT3 inhibitors may also be assessed using leukemia cell lines that express endogenous FLT3-ITD or cells that are engineered to express wild-type or mutant FLT3. The cells expressing endogenous FLT3 are dependent upon FLT3 catalytic activity for growth. For the engineered cells, murine BA/F3 cells were transfected with full-length FLT3 (either wild-type, or containing the ITD, D835Y, or F691L mutations, as noted). The parental BA/F3 cells are dependent upon Interleukin-3 (IL-3) for survival, and introduction of the FLT3 constructs renders these cells dependent upon FLT3 kinase activity when cultured in the absence of IL-3. Engineered BA/F3 cell growth assays can be performed in either the absence or presence of IL-3, to assess the compound inhibition of FLT3 or to detect the presence of off-target activity, respectively. Inhibitors of FLT3 kinase activity reduce or eliminate the FLT3 oncogenic signaling, resulting in reduced cell proliferation. This inhibition is measured as a function of compound concentration to assess IC50 values.
Cells were seeded at 1×10^4 cells per well of a 96 well cell culture plate in 50 μl of cell culture medium. Compounds were dissolved in DMSO, typically at a concentration of 5 mM and were serially diluted 1:3 for a total of eight points and added to the cells to final concentrations of 10, 3.3, 1.1, 0.37, 0.12, 0.041, 0.014 and 0.0046 μM in 100 μl cell culture medium (final concentration 0.2% DMSO). […] The cells were incubated at 37° C., 5% CO2 for three days. CellTiter-Glo Buffer (Promega Cell Viability Assay catalog #G7573) and substrate were equilibrated to room temperature, and enzyme/substrate Recombinant Firefly Luciferase/Beetle Luciferin was reconstituted. The cell plates were equilibrated to room temperature for 30 minutes, then lysed by addition of an equivalent volume of the Celltiter-Glo Reagent. The plate was mixed for 10 minutes on a plate shaker to lyse the cells. The plates were read on a Tecan M1000 using Luminescence protocol modified to read 0.1 s per well. The luminescence reading assesses the ATP content, which correlates directly with cell number such that the reading as a function of compound concentration was used to determine the IC50 value.

FLT3-D835Y = target: T3, FLT3-D835Y (Homo sapiens, UniProt P36888, D835Y); experiment: FLT3-D835Y biochemical kinase assay (AlphaScreen)
T3 construct: purchased Invitrogen PV3967
T3 sequence (P36888 27-993 D835Y): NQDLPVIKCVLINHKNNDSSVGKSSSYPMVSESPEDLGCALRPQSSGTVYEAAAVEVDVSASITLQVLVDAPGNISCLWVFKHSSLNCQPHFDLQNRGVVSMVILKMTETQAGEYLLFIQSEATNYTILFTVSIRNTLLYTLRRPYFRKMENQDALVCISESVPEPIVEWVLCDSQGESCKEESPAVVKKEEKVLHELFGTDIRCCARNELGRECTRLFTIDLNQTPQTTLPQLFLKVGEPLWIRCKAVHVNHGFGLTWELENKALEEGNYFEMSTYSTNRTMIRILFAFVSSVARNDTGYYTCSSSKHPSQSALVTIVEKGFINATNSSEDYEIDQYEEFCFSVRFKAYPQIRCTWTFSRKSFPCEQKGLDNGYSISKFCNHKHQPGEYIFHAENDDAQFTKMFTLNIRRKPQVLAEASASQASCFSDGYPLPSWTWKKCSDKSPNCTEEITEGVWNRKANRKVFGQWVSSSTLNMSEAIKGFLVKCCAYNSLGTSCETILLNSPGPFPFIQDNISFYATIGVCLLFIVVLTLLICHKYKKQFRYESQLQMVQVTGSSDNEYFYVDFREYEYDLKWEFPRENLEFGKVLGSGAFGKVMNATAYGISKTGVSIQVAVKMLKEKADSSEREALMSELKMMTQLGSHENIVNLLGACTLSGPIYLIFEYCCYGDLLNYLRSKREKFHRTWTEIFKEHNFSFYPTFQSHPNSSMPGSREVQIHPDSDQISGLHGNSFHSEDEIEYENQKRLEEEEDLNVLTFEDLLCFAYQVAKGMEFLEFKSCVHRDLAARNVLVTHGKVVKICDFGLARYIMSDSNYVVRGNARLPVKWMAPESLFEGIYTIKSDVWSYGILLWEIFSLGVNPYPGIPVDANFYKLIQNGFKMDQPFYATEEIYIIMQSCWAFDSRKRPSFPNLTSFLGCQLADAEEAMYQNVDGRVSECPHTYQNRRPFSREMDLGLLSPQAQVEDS
Procedure, shortened: as §1

c-Kit = c-Kit (Homo sapiens, UniProt P10721); experiment: c-Kit biochemical assay (per US 2007/0032519)
Sequence of c-Kit (P10721 26-976): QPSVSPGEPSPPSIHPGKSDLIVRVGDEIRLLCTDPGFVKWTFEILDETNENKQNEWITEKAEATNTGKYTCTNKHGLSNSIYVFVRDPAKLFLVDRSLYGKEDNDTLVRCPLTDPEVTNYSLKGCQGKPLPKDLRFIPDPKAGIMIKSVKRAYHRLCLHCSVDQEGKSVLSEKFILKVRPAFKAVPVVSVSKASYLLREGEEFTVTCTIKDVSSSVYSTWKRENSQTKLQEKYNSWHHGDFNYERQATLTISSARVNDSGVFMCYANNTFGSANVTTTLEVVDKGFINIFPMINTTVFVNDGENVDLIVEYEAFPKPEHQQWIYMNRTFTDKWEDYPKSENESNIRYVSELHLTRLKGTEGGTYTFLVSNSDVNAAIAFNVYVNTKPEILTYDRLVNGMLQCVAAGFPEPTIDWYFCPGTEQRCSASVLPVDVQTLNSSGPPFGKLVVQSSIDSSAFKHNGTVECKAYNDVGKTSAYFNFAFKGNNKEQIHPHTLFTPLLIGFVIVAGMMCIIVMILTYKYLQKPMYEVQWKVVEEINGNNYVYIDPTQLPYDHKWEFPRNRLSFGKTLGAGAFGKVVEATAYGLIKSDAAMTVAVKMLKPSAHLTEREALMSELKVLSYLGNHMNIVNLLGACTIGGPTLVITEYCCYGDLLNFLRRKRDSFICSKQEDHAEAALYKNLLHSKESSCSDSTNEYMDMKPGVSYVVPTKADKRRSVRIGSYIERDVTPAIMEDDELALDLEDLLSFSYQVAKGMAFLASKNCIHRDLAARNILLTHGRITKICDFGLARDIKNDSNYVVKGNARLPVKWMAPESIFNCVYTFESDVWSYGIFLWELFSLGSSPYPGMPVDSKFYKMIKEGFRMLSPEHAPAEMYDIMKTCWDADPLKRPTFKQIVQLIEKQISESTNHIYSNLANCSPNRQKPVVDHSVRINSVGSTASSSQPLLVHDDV
Procedure: The following Table 2 provides data indicating FLT3 ITD, FLT3 D835Y, and KIT biochemical activity, and BaF3 FLT3 ITD/F69L cellular inhibitory activity for exemplary compounds described in this disclosure. In the table below, activity is provided as follows: +++=0.0001<IC50<1 μM; ++=1 μM<IC50<10 μM, +=10 μM<IC50<200 μM. Assays for the biochemical activity of c-Kit and FMS were conducted according to those assays described in US Patent Application Publication number US 2007/0032519, the disclosure of which is hereby incorporated by reference in its entirety.

IC50 (FLT3-ITD) | GI50 [1] | IC50 (FLT3-D835Y) | IC50 (c-Kit) | SMILES
0.0001 to 1 µM | 0.0001 to 1 µM | – | – | CN1CCN(c2ccc(-c3cnc4[nH]cc(-c5ccc6ncn(C7CCCNC7)c6c5)c4n3)cn2)CC1 (stereo not shown) [P-334, 2-[6-(4-methylpiperazin-1-yl)-3-pyridyl]-7-[3-(3-piperidyl)benzimidazol-5-yl]-5H-pyrrolo[2,3-b]pyrazine]
– | – | 0.0001 to 1 µM | 1 to 10 µM | COc1cnc2[nH]cc(-c3ccc4ncn(Cc5ccccc5)c4c3)c2c1 [P-073, 1-benzyl-6-(5-methoxy-1H-pyrrolo[2,3-b]pyridin-3-yl)benzimidazole]
– | 0.0001 to 1 µM | 0.0001 to 1 µM | – | CC(C)(C)n1cnc2ccc(-c3c[nH]c4ncc(-c5cccc(N6CCNCC6)c5)nc34)cc21 [P-302, 7-(3-tert-butylbenzimidazol-5-yl)-2-(3-piperazin-1-ylphenyl)-5H-pyrrolo[2,3-b]pyrazine]
– | 0.0001 to 1 µM | 0.0001 to 1 µM | – | c1cc(N2CCOCC2)ccc1-c1cnc2[nH]cc(-c3ccc4ncn(C5CCCNC5)c4c3)c2c1 (stereo not shown) [P-300, 4-[4-[3-[3-(3-piperidyl)benzimidazol-5-yl]-1H-pyrrolo[2,3-b]pyridin-5-yl]phenyl]morpholine]
0.0001 to 1 µM | 0.0001 to 1 µM | – | – | CN1CCN(c2ccc(-c3cnc4[nH]cc(-c5ccc6ncn(C(C)(C)C)c6c5)c4n3)cn2)CC1 [P-333, 7-(3-tert-butylbenzimidazol-5-yl)-2-[6-(4-methylpiperazin-1-yl)-3-pyridyl]-5H-pyrrolo[2,3-b]pyrazine]
– | 0.0001 to 1 µM | 0.0001 to 1 µM | – | CC(C)(C)n1cnc2ccc(-c3c[nH]c4ncc(-c5ccnc(N6CCNCC6)c5)nc34)cc21 [P-307, 7-(3-tert-butylbenzimidazol-5-yl)-2-(2-piperazin-1-yl-4-pyridyl)-5H-pyrrolo[2,3-b]pyrazine]
– | 0.0001 to 1 µM | 0.0001 to 1 µM | – | COc1cnc2[nH]cc(-c3ccc4ncn(-c5ccc(F)c(Cl)c5)c4c3)c2c1 [P-109, 1-(3-chloro-4-fluoro-phenyl)-6-(5-methoxy-1H-pyrrolo[2,3-b]pyridin-3-yl)benzimidazole]
– | 0.0001 to 1 µM | 0.0001 to 1 µM | – | Cn1cnc2ccc(-c3c[nH]c4ncc(C(=O)Nc5cccc(F)c5)cc34)cc21 [P-177, N-(3-fluorophenyl)-3-(3-methylbenzimidazol-5-yl)-1H-pyrrolo[2,3-b]pyridine-5-carboxamide]
– | 0.0001 to 1 µM | 0.0001 to 1 µM | – | CC(C)(C)n1cnc2ccc(-c3c[nH]c4ncc(-c5ccc(N6CCOCC6)cc5)cc34)cc21 [P-299, 4-[4-[3-(3-tert-butylbenzimidazol-5-yl)-1H-pyrrolo[2,3-b]pyridin-5-yl]phenyl]morpholine]
– | 0.0001 to 1 µM | 0.0001 to 1 µM | – | c1cc(-c2cnc3[nH]cc(-c4ccc5ncn(C6CCCNC6)c5c4)c3n2)cc(N2CCOCC2)c1 (stereo not shown) [P-303, 4-[3-[7-[3-(3-piperidyl)benzimidazol-5-yl]-5H-pyrrolo[2,3-b]pyrazin-2-yl]phenyl]morpholine]
– | 0.0001 to 1 µM | 0.0001 to 1 µM | – | N#Cc1cc(-c2cnc3[nH]cc(-c4ccc5ncn(C6CCCNC6)c5c4)c3n2)ccn1 (stereo not shown) [P-304, 4-[7-[3-(3-piperidyl)benzimidazol-5-yl]-5H-pyrrolo[2,3-b]pyrazin-2-yl]pyridine-2-carbonitrile]

— patent publication US10160755B2 (Plexxikon Inc., priority 2015, dated 2018)
